This note sets out measurements from PMC6817585, “Simultaneous Determination of Five Alkaloids by HPLC-MS/MS Combined With Micro-SPE in Rat Plasma and Its Application to Pharmacokinetics After Oral Administration of Lotus Leaf Extract” (Frontiers in Pharmacology, 2019).

Data set [1] is described as follows: Pharmacokinetics of five alkaloids in rat plasma after oral administration of lotus leaf extract. Type of data set: in vivo, Male Sprague-Dawley rats. The protocol:
All analyses were performed on Agilent 1200 HPLC system (Agilent Corporation, USA) and API 3200 triple-quadrupole mass spectrometer (Concord, Ontario, Canada) in multiple-reaction monitoring (MRM) with positive ionization mode. Acetonitrile (A) and formic acid aqueous solution (B) (0.1%, v/v) is used to separate the analytes on Eclipse plus C18 column (4.6 mm × 100 mm, 1.8 µm) with a guard C18 column (2.1 mm × 12.5 mm, 5 µm). The gradient of elution is as follows: 5%–60% A at 0 to 4 min, 60%–70% A at 4 to 5 min, 70%–93% A at 5 to 7 min, 93%–94% A at 7 to 11 min, 94%–5% A at 11 to 12 min, and 5%–5% A at 12 to 17 min. The flow rate and injection volume are 0.3 ml·min^-1 and 5 µl, respectively. The main parameters of ion source including the ion spray voltage, the curtain gas, and temperature are set at 5000 V, 35 psi, and 450°C, respectively.
The real plasma sample (100 µl) and IS solution (10 µl) were vortex-mixed for 1 min. The sample was carried out with the SPE column (Cleanert PEP-2, 40–60 µm, 60 Å, 10 mg/1 ml; Phenomenex, Torrance, CA, USA). First, SPE columns were activated by 50% methanol in water (1 ml) and 0.1% formic acid in water (1 ml) and were used to activate the SPE column in sequence. Second, columns were washed with 200 µl methanol (20%, v/v) and eluted with acetonitrile (400 µl) after the plasma samples were added. Finally, the eluent was centrifuged for 10 min with 14,000 rpm. Then final solutions were injected into the HPLC-MS/MS and analyzed.
The pharmacokinetic study was conducted in accordance with the Guidelines for the Care and Use of Laboratory Animals by the US National Institutes of Health and approved by the Animal Ethics Committee of Tianjin University of Traditional Chinese Medicine (permit number: TCM-LAEC2019022, Tianjin, China),. Male Sprague-Dawley rats (240–260 g) were fed in the animal laboratory of the Tianjin University of Traditional Chinese Medicine under the standard conditions. These rats were allowed free to get standard laboratory food and water and conformed for 1 week until 12 h before experiment. These rats (n = 10) were fasted, although they were still given water for 12 h, before the oral administration of lotus leaf extract. […] The plasma samples were centrifuged in 10 min at 7000 rpm and kept at −20°C until analyzed.
All of the pharmacokinetic parameters were calculated by one compartment model with DAS 1.0 software (Medical College of Wannan). The maximum drug concentration (Cmax) and the time to reach Cmax (Tmax) were acquired from observed concentration–time profile for oral administration in plasma. All data were shown as mean ± SD.

Data set [2] can be described thus: Stability of analytes in rat plasma QC samples (auto-sampler, freeze-thaw, short-time, long-term). Format: in vitro ADME. The procedure: (§1) The stabilities (including auto-sampler, freeze–thaw cycles, and short-time and long-term stability) of all analytes were obtained by testing QC samples of four concentrations. Moreover, the stabilities for stock and working solution were assessed with mixed standard substance (100 ng·ml^−1) and the QC sample solutions of four concentration levels, respectively. These solutions were achieved by diluting stock solutions kept at 4°C for 2 weeks. For IS, the evaluated procedures of two stabilities were same as the five alkaloids.

Data set [3] in a line: Stability of stock and working solutions. Type of data set: physicochemical. The note with it: for Remain, working solution: n = 6. The protocol:
as §1

Where [4] appears, read: male, Sprague-Dawley, rat, in vivo, po, 2.4 g/kg.
[5] abbreviates: concentration LLOQ, from stock kept at 4°C for 2 weeks.
Setting [6] is: male, Sprague-Dawley, rat, in vivo, po, 2.4 g/kg, rat plasma, oral lotus leaf extract 2.4 g·kg^−1, n = 10, mean ± SD, read-out: MRT(0–tn).
Setting [7] is: male, Sprague-Dawley, rat, in vivo, po, 2.4 g/kg, rat plasma, oral lotus leaf extract 2.4 g·kg^−1, n = 10, mean ± SD, read-out: MRT(0–∞).
Where [8] appears, read: male, Sprague-Dawley, rat, in vivo, po, 2.4 g/kg, rat plasma, oral lotus leaf extract 2.4 g·kg^−1, n = 10, mean ± SD, read-out: Tmax.
The mark [9] stands for this setting: male, Sprague-Dawley, rat, in vivo, po, 2.4 g/kg, rat plasma, oral lotus leaf extract 2.4 g·kg^−1, n = 10, one compartment model, mean ± SD, read-out: T1/2 (converted).
[10] abbreviates: rat, oral lotus leaf extract 2.4 g·kg^−1.
Setting [11] is: rat plasma QC, autosampler 24 h, LLOQ, n = 6.
The mark [12] stands for this setting: rat plasma QC, freeze thaw cycles, LLOQ, n = 6.
[13] abbreviates: rat plasma QC, room temperature 24 h, LLOQ, n = 6.
Where [14] appears, read: rat plasma QC, −80°C 1 month, LLOQ, n = 6.
Setting [15] is: rat plasma, oral lotus leaf extract 2.4 g·kg^−1, n = 10, mean ± SD.

Where two headings read alike, the source gives them in different places.

Take `COc1cc2c(cc1OC)C(Cc1ccc(O)cc1)N(C)CC2` (stereo not drawn) [Armepavine, armepavine]: the AUC – broadly, concentration integrated over time – in data set [1] (setting [4]) turned out to be 28.6 ± 16.5 ng·h/mL. Also, the AUC(0-inf) in data set [1] (setting [4]) was 53.8 ± 34.6 ng·h/mL. Besides, the highest level in data set [1] (setting [4]) (Cmax) was 8.78 ± 7.78 ng/mL. In data set [1] (setting [4]), the MRT – broadly, the average time that molecules of a dose stay in the body – amounted to 7.23 ± 1.93 h. The molecule also came in with an MRT inf in data set [1] (setting [4]) of 31.9 ± 25.9 h. For the same molecule, in data set [1] (setting [4]), the time to peak (Tmax) (as a rule, the time at which the peak concentration occurs) is 0.3 ± 0.11 h. In data set [1] (setting [4]), this molecule gave a half-life of 5.22 ± 5.09 h. Besides, in data set [1] (rat, in vivo, po), the “Absorption after orally administrating the lotus leaf extract (in words)” value is reported as “fast absorption”. Further, the “Remain, freeze thaw cycles” value is 103% in data set [2] (rat, plasma); 107% in data set [2] (rat, plasma, 1 ng/ml); 111% in data set [2] (rat, plasma, 20 ng/ml); 85.2% in data set [2] (rat, plasma, 100 ng/ml). Also, the “Remain, −80°C for 1 month” value in data set [2] (rat, plasma, 1 month) turned out to be 109%; in data set [2] (rat, plasma, 1 month, 1 ng/ml), 107%; in data set [2] (rat, plasma, 1 month, 20 ng/ml), 113%; in data set [2] (rat, plasma, 1 month, 100 ng/ml) it was 107%. The “Remain, autosampler for 24 h” value in data set [2] (rat, plasma, 24 h) came out at 87.6%; in data set [2] (rat, plasma, 24 h, 1 ng/ml), 90.8%; in data set [2] (rat, plasma, 24 h, 20 ng/ml) it was 114%; in data set [2] (rat, plasma, 24 h, 100 ng/ml), 87.4%. Further, the “Remain, room temperature for 24 h” value in data set [2] (rat, plasma, 24 h) is reported as 91.5%; in data set [2] (rat, plasma, 24 h, 1 ng/ml) it was 104%; in data set [2] (rat, plasma, 24 h, 20 ng/ml), 118%; in data set [2] (rat, plasma, 24 h, 100 ng/ml), 110%. For the same molecule, the “Remain, working solution” value worked out at 98.8% in data set [3] (1 ng/ml), 95.8% in data set [3] (20 ng/ml), 101% in data set [3] (100 ng/ml) and 96.3% in data set [3] (setting [5]).

For `COc1cc2c(cc1OC)-c1cc3ccc(OC)c(OC)c3c[n+]1CC2` [IS, palmatine chloride, reference compound], the “Remain, stock solution” value in data set [3] (stock solution kept at 4°C for 2 weeks) stood at 114%.

`O=C1c2ccccc2-c2c3c(cc4ccnc1c24)OCO3` [Liriodenine, liriodenine]: the AUC in data set [1] (male, Sprague-Dawley, rat, in vivo, po, 2.4 g/kg, rat plasma, oral lotus leaf extract 2.4 g·kg^−1, n = 10, mean ± SD, read-out: AUC(0–tn)) worked out at 415 ± 200 ng·h/mL. Moreover, in data set [1] (male, Sprague-Dawley, rat, in vivo, po, 2.4 g/kg, rat plasma, oral lotus leaf extract 2.4 g·kg^−1, n = 10, mean ± SD, read-out: AUC(0–∞)), the AUC(0-inf) is 429 ± 199 ng·h/mL. The Cmax (commonly the highest concentration seen after dosing) in data set [1] (male, Sprague-Dawley, rat, in vivo, po, 2.4 g/kg, rat plasma, oral lotus leaf extract 2.4 g·kg^−1, n = 10, mean ± SD, read-out: Cmax) came out at 54.7 ± 31.8 ng/mL. Besides, in data set [1] (setting [6]), the MRT was determined as 7.11 ± 1.21 h. For the same molecule, in data set [1] (setting [7]), the MRT inf was 8.17 ± 1.86 h. Moreover, in data set [1] (setting [8]), the Tmax is 5.7 ± 2.83 h. In data set [1] (setting [9]), the half-life is 3.77 ± 1.15 h. In data set [1] (setting [10]), the “Absorption after orally administrating the lotus leaf extract (in words)” value is given as “slow absorption”. The “Remain, autosampler for 24 h” value in data set [2] (rat plasma QC, autosampler 24 h, 1 ng/ml, n = 6) was determined as 86.0%; in data set [2] (rat plasma QC, autosampler 24 h, 40 ng/ml, n = 6), 105%; in data set [2] (rat plasma QC, autosampler 24 h, 200 ng/ml, n = 6), 96.8%; in data set [2] (setting [11]) it was 95.7%. For the same molecule, the “Remain, freeze thaw cycles” value in data set [2] (rat plasma QC, freeze thaw cycles, 1 ng/ml, n = 6) is reported as 86.9%; in data set [2] (rat plasma QC, freeze thaw cycles, 40 ng/ml, n = 6) it was 92.7%; in data set [2] (rat plasma QC, freeze thaw cycles, 200 ng/ml, n = 6), 90.5%; in data set [2] (setting [12]) it was 91.7%. In addition, the “Remain, room temperature for 24 h” value in data set [2] (rat plasma QC, room temperature 24 h, 1 ng/ml, n = 6) worked out at 87.9%; in data set [2] (rat plasma QC, room temperature 24 h, 40 ng/ml, n = 6), 96.9%; in data set [2] (rat plasma QC, room temperature 24 h, 200 ng/ml, n = 6), 102%; in data set [2] (setting [13]) it was 92.9%. Also, the “Remain, −80°C for 1 month” value in data set [2] (rat plasma QC, −80°C 1 month, 1 ng/ml, n = 6) is recorded as 107%; in data set [2] (rat plasma QC, −80°C 1 month, 40 ng/ml, n = 6), 105%; in data set [2] (rat plasma QC, −80°C 1 month, 200 ng/ml, n = 6), 104%; in data set [2] (setting [14]), 98.9%. Also, the “Remain, working solution” value was 96.9% in data set [3] (1 ng/ml), 91.7% in data set [3] (40 ng/ml), 112% in data set [3] (200 ng/ml) and 105% in data set [3] (setting [5]).

`COc1cc2c3c(c1OC)-c1ccccc1C[C@H]3N(C)CC2` [Nunciferine, nunciferine]: the MRT in data set [1] (setting [6]) was determined as 5.49 ± 0.96 h. Further, the MRT inf in data set [1] (setting [7]) came out at 6.14 ± 1.47 h. The Tmax in data set [1] (setting [8]) was 3.5 ± 1.84 h. Besides, the half-life in data set [1] (setting [9]) was 6.18 ± 3.1 h. The same molecule displayed an AUCs(0–24 h) in data set [1] (rat plasma, oral lotus leaf extract 2.4 g·kg^−1) of 2070 ± 919 ng·h/mL. Further, the “AUC(0–tn)” value in data set [1] (setting [15]) was determined as 2069 ± 919 ng·h/mL. For the same molecule, in data set [1] (setting [15]), the “AUC(0–∞)” value was 2142 ± 961 ng·h/mL. Further, the Cmax was 317.58 ± 175.05 ng/mL in data set [1] (setting [15]) and 317.6 ± 175.1 ng/mL in data set [1] (rat plasma, oral lotus leaf extract 2.4 g·kg^−1, n = 10, mean ± SD, listed as nunciferine). Moreover, the “Plasma exposure (in words)” value in data set [1] (setting [10]) is “abundant plasma exposure”. In addition, the “Remain, autosampler for 24 h” value came out at 89.7% in data set [2] (rat plasma QC, autosampler 24 h, 2 ng/ml, n = 6); 98.4% in data set [2] (rat plasma QC, autosampler 24 h, 100 ng/ml, n = 6); 85.4% in data set [2] (rat plasma QC, autosampler 24 h, 500 ng/ml, n = 6); 87.5% in data set [2] (setting [11]). In addition, the “Remain, freeze thaw cycles” value in data set [2] (rat plasma QC, freeze thaw cycles, 2 ng/ml, n = 6) came out at 92.5%; in data set [2] (rat plasma QC, freeze thaw cycles, 100 ng/ml, n = 6), 92.0%; in data set [2] (rat plasma QC, freeze thaw cycles, 500 ng/ml, n = 6), 85.3%; in data set [2] (setting [12]) it was 95.9%. Besides, the “Remain, room temperature for 24 h” value is listed as 96.5% in data set [2] (rat plasma QC, room temperature 24 h, 2 ng/ml, n = 6); 109% in data set [2] (rat plasma QC, room temperature 24 h, 100 ng/ml, n = 6); 89.3% in data set [2] (rat plasma QC, room temperature 24 h, 500 ng/ml, n = 6); 94.4% in data set [2] (setting [13]). For the same molecule, the “Remain, −80°C for 1 month” value in data set [2] (rat plasma QC, −80°C 1 month, 2 ng/ml, n = 6) came out at 96.3%; in data set [2] (rat plasma QC, −80°C 1 month, 100 ng/ml, n = 6), 100%; in data set [2] (rat plasma QC, −80°C 1 month, 500 ng/ml, n = 6), 91.4%; in data set [2] (setting [14]) it was 99.4%. Also, the “Remain, working solution” value in data set [3] (2 ng/ml) came out at 92.5%; in data set [3] (100 ng/ml) it was 98.7%; in data set [3] (500 ng/ml), 108%; in data set [3] (setting [5]) it was 101%.
